From patent US7704525B2, “Lipid microparticles by cryogenic micronization” (Ares Trading S.A., priority 2000, dated 2010)

Assay: Partition coefficient octanol/water of Antide
Assay type: physicochemical
Conditions: 24 hours stirring at room temperature, RP-HPLC
Protocol: Partition coefficient: it was determined using octanol as organic phase and water as hydrophilic phase. The two phases were first saturated with each other for 24 hours at room temperature. Antide was then dissolved in the water phase at a concentration well below saturation. An equal volume of organic phase was subsequently added to the water phase and the mixture was kept under stirring for 24 hours at room temperature. Antide concentration in the two phases was determined by RP-HPLC and the partition coefficient was obtained from the ratio between the drug concentration in organic and water phase.
The resulting octanol/water coefficient was 8.56·10^−2

Substance: N—Ac-D-2-NaI, D-pCiPhe, D-3-Pal, Ser, NicLys, D-NicLys, Leu, Ilys, Pro, D-Ala, NH2 [Antide]
- octanol/water coefficient: 8.56·10^−2
